Measured values as given in article PMC4254589 (Bioorganic & medicinal chemistry, 2014).
Read-outs that look alike come from different tables or passages of the source. Bridge positions count the residues as written; N and C are the ends. Square brackets hold non-standard residues; d marks the D form. Peptide text beside a SMILES is read from it. d2Nal = N[C@H](Cc1ccc2ccccc2c1)C(=O)O; Nle = CCCC[C@H](N)C(=O)O

Tests used:
[1] = target: T1, hMC4R (Homo sapiens, UniProt P32245); settings: binding to hMC4R, MSH(7) ligands; cited from earlier work
[2] = target: T1, hMC4R; test: Lanthanide-based competitive binding assay

T1 sequence (P32245 whole entry): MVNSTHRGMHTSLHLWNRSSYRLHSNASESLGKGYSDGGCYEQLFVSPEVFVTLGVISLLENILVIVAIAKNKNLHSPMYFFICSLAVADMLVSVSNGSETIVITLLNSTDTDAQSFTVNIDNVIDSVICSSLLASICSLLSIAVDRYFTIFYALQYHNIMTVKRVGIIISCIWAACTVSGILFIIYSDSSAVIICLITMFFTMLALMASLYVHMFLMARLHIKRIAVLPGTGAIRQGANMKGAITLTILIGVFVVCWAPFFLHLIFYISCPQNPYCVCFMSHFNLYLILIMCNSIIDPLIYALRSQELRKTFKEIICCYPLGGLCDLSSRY

Compound	EC50 [1] [nM]	EC50 ([2]; SEM) [nM]	also measured
Ac-(Pro-Gly)6- MSH(7)-NH2 (Ac-PGPGPGPGPGPGS[Nle]EH[dF]RW-NH2; SMILES CCCC[C@H](NC(=O)[C@H](CO)NC(=O)CNC(=O)[C@@H]1CCCN1C(=O)CNC(=O)[C@@H]1CCCN1C(=O)CNC(=O)[C@@H]1CCCN1C(=O)CNC(=O)[C@@H]1CCCN1C(=O)CNC(=O)[C@@H]1CCCN1C(=O)CNC(=O)[C@@H]1CCCN1C(C)=O)C(=O)N[C@@H](CCC(=O)O)C(=O)N[C@@H](Cc1c[nH]cn1)C(=O)N[C@H](Cc1ccccc1)C(=O)N[C@@H](CCCNC(=N)N)C(=O)N[C@@H](Cc1c[nH]c2ccccc12)C(N)=O) [compound 19]	82 ± 12	–	–
Ac-MSH(7)-(Pro-Gly)6- MSH(7)-NH2 (Ac-S[Nle]EH[dF]RWPGPGPGPGPGPGS[Nle]EH[dF]RW-NH2; SMILES CCCC[C@H](NC(=O)[C@H](CO)NC(C)=O)C(=O)N[C@@H](CCC(=O)O)C(=O)N[C@@H](Cc1c[nH]cn1)C(=O)N[C@H](Cc1ccccc1)C(=O)N[C@@H](CCCNC(=N)N)C(=O)N[C@@H](Cc1c[nH]c2ccccc12)C(=O)N1CCC[C@H]1C(=O)NCC(=O)N1CCC[C@H]1C(=O)NCC(=O)N1CCC[C@H]1C(=O)NCC(=O)N1CCC[C@H]1C(=O)NCC(=O)N1CCC[C@H]1C(=O)NCC(=O)N1CCC[C@H]1C(=O)NCC(=O)N[C@@H](CO)C(=O)N[C@@H](CCCC)C(=O)N[C@@H](CCC(=O)O)C(=O)N[C@@H](Cc1c[nH]cn1)C(=O)N[C@H](Cc1ccccc1)C(=O)N[C@@H](CCCNC(=N)N)C(=O)N[C@@H](Cc1c[nH]c2ccccc12)C(N)=O) [compound 22]	11 ± 2	–	–
CCCC[C@H](NC(=O)COCC(=O)NCCCOCCOCCOCCCNC(=O)CNC(=O)[C@@H]1CCCN1C(=O)CNC(=O)[C@@H]1CCCN1C(=O)CNC(=O)[C@@H]1CCCN1C(=O)COCC(=O)NCCCOCCOCCOCCCNC(=O)[C@H](Cc1c[nH]c2ccccc12)NC(=O)[C@H](CCCNC(=N)N)NC(=O)[C@@H](Cc1ccccc1)NC(=O)[C@H](Cc1c[nH]cn1)NC(=O)[C@H](CCC(=O)O)NC(=O)[C@H](CCCC)NC(=O)[C@H](CO)NC(C)=O)C(=O)N[C@H]1CC(=O)NCCCC[C@@H](C(N)=O)NC(=O)[C@H](Cc2c[nH]c3ccccc23)NC(=O)[C@H](CCCNC(=N)N)NC(=O)[C@@H](Cc2ccc3ccccc3c2)NC(=O)[C@H](Cc2c[nH]cn2)NC1=O [compound 16, Ac-MSH(7)-PEGO-(Pro-Gly)3-PEGO-SHU9119-NH2]	–	1.38	–
CCCC[C@H](NC(=O)COCC(=O)NCCCOCCOCCOCCCNC(=O)[C@H](Cc1c[nH]c2ccccc12)NC(=O)[C@H](CCCNC(=N)N)NC(=O)[C@@H](Cc1ccccc1)NC(=O)[C@H](Cc1c[nH]cn1)NC(=O)[C@H](CCC(=O)O)NC(=O)[C@H](CCCC)NC(=O)[C@H](CO)NC(C)=O)C(=O)N[C@H]1CC(=O)NCCCC[C@@H](C(N)=O)NC(=O)[C@H](Cc2c[nH]c3ccccc23)NC(=O)[C@H](CCCNC(=N)N)NC(=O)[C@@H](Cc2ccc3ccccc3c2)NC(=O)[C@H](Cc2c[nH]cn2)NC1=O [compound 17, Ac-MSH(7)-PEGO-SHU9119-NH2]	–	1.86	–
CCCC[C@H](NC(=O)[C@H](CO)NC(C)=O)C(=O)N[C@@H](CCC(=O)O)C(=O)N[C@@H](Cc1c[nH]cn1)C(=O)N[C@H](Cc1ccccc1)C(=O)N[C@@H](CCCNC(=N)N)C(=O)N[C@@H](Cc1c[nH]c2ccccc12)C(N)=O [MSH(7), Ac-Ser-Nle-Glu-His-D-Phe-Arg-Trp-NH2] (Ac-S[Nle]EH[dF]RW-NH2)	–	–	EC50 [2]: ~50 nM
CCCC[C@H](NC(=O)COCC(=O)NCCCOCCOCCOCCCNC(=O)COCC(=O)NCCCOCCOCCOCCCNC(=O)[C@H](Cc1c[nH]c2ccccc12)NC(=O)[C@H](CCCNC(=N)N)NC(=O)[C@@H](Cc1ccccc1)NC(=O)[C@H](Cc1c[nH]cn1)NC(=O)[C@H](CCC(=O)O)NC(=O)[C@H](CCCC)NC(=O)[C@H](CO)NC(C)=O)C(=O)N[C@H]1CC(=O)NCCCC[C@@H](C(N)=O)NC(=O)[C@H](Cc2c[nH]c3ccccc23)NC(=O)[C@H](CCCNC(=N)N)NC(=O)[C@@H](Cc2ccc3ccccc3c2)NC(=O)[C@H](Cc2c[nH]cn2)NC1=O [compound 18, Ac-MSH(7)-PEGO-PEGO-SHU9119-NH2]	–	1.7	–
Ac-(Pro-Gly)9- MSH(7)-NH2 (Ac-PGPGPGPGPGPGPGPGPGS[Nle]EH[dF]RW-NH2; SMILES CCCC[C@H](NC(=O)[C@H](CO)NC(=O)CNC(=O)[C@@H]1CCCN1C(=O)CNC(=O)[C@@H]1CCCN1C(=O)CNC(=O)[C@@H]1CCCN1C(=O)CNC(=O)[C@@H]1CCCN1C(=O)CNC(=O)[C@@H]1CCCN1C(=O)CNC(=O)[C@@H]1CCCN1C(=O)CNC(=O)[C@@H]1CCCN1C(=O)CNC(=O)[C@@H]1CCCN1C(=O)CNC(=O)[C@@H]1CCCN1C(C)=O)C(=O)N[C@@H](CCC(=O)O)C(=O)N[C@@H](Cc1c[nH]cn1)C(=O)N[C@H](Cc1ccccc1)C(=O)N[C@@H](CCCNC(=N)N)C(=O)N[C@@H](Cc1c[nH]c2ccccc12)C(N)=O) [compound 20]	236 ± 24	–	–
Ac-(Pro-Gly)12- MSH(7)-NH2 (Ac-PGPGPGPGPGPGPGPGPGPGPGPGS[Nle]EH[dF]RW-NH2; SMILES CCCC[C@H](NC(=O)[C@H](CO)NC(=O)CNC(=O)[C@@H]1CCCN1C(=O)CNC(=O)[C@@H]1CCCN1C(=O)CNC(=O)[C@@H]1CCCN1C(=O)CNC(=O)[C@@H]1CCCN1C(=O)CNC(=O)[C@@H]1CCCN1C(=O)CNC(=O)[C@@H]1CCCN1C(=O)CNC(=O)[C@@H]1CCCN1C(=O)CNC(=O)[C@@H]1CCCN1C(=O)CNC(=O)[C@@H]1CCCN1C(=O)CNC(=O)[C@@H]1CCCN1C(=O)CNC(=O)[C@@H]1CCCN1C(=O)CNC(=O)[C@@H]1CCCN1C(C)=O)C(=O)N[C@@H](CCC(=O)O)C(=O)N[C@@H](Cc1c[nH]cn1)C(=O)N[C@H](Cc1ccccc1)C(=O)N[C@@H](CCCNC(=N)N)C(=O)N[C@@H](Cc1c[nH]c2ccccc12)C(N)=O) [compound 21]	188 ± 25	–	–
CCCC[C@H](NC(=O)CNC(=O)[C@@H]1CCCN1C(=O)CNC(=O)[C@@H]1CCCN1C(=O)CNC(=O)[C@@H]1CCCN1C(=O)CNC(=O)[C@@H]1CCCN1C(=O)CNC(=O)[C@@H]1CCCN1C(=O)CNC(=O)[C@@H]1CCCN1C(=O)CNC(=O)[C@@H]1CCCN1C(=O)CNC(=O)[C@@H]1CCCN1C(=O)CNC(=O)[C@@H]1CCCN1C(=O)CNC(=O)[C@@H]1CCCN1C(=O)CNC(=O)[C@@H]1CCCN1C(=O)CNC(=O)[C@@H]1CCCN1C(=O)[C@H](Cc1c[nH]c2ccccc12)NC(=O)[C@H](CCCNC(=N)N)NC(=O)[C@@H](Cc1ccccc1)NC(=O)[C@H](Cc1c[nH]cn1)NC(=O)[C@H](CCC(=O)O)NC(=O)[C@H](CCCC)NC(=O)[C@H](CO)NC(C)=O)C(=O)N[C@H]1CC(=O)NCCCC[C@@H](C(N)=O)NC(=O)[C@H](Cc2c[nH]c3ccccc23)NC(=O)[C@H](CCCNC(=N)N)NC(=O)[C@@H](Cc2ccc3ccccc3c2)NC(=O)[C@H](Cc2c[nH]cn2)NC1=O [compound 15, Ac-MSH(7)-(Pro-Gly)12-SHU9119-NH2] (Ac-S[Nle]EH[dF]RWPGPGPGPGPGPGPGPGPGPGPGPG[Nle]DH[d2Nal]RWK-NH2; lactam 33-38)	–	1.58	–
